One may read the Ki as the dissociation constant of the complex between target and ligand, obtained from inhibition or displacement.

One assay concerns the target T1, ROCK2 (Homo sapiens, UniProt O75116).
T1 construct: purchased Upstate/Chemicon 14-451
The assay is described as follows: Rho kinase inhibition assay (IMAP fluorescence polarization), ROCK2.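 Also: kinase reaction started with 10 µM ATP and run 60 min at room temperature, then phosphorylated substrate captured on IMAP beads for 30 min and fluorescence polarization read in mP.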 It is filed as biochemical. As to conditions: 10 μM ATP; read-out: ROCK2 Ki, Avg. (In general: Polarisation of emitted light reports the rotation of a fluorescent probe.)

The target in another assay is T2, ROCK1 (Homo sapiens, UniProt Q13464).
T2 construct: purchased Upstate/Chemicon 14-601
T2 sequence (Q13464 17-535 limits assumed): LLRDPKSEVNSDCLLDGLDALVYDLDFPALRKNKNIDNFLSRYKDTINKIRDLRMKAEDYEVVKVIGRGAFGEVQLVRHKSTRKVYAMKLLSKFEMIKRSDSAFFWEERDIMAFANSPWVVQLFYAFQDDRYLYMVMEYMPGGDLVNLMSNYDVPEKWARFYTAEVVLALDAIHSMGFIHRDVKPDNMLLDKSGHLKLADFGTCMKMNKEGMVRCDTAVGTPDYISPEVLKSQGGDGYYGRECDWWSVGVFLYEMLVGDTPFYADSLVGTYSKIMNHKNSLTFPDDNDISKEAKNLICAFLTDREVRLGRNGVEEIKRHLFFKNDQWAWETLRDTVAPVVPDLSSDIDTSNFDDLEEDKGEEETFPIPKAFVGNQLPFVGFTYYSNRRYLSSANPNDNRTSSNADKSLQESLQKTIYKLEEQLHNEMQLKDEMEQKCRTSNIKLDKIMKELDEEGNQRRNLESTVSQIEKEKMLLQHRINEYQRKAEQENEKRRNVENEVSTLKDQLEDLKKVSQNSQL
The assay can be described thus: Rho kinase inhibition assay (IMAP fluorescence polarization), ROCK1.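 Also: kinase reaction run 60 min at room temperature, then phosphorylated substrate captured on IMAP beads for 30 min, with fluorescence polarization read in mP.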 It is filed as biochemical. Conditions: Avg, 10 μM ATP.

The subject of a further assay is NIH/3T3 cells. The assay is described as follows: NIH/3T3 cell morphology assay (actin cytoskeleton disruption). Conditions: score 0 (no effect) to 4 (complete disruption) of the actin cytoskeleton; 60 minutes. It is filed as cell-based. How it is done: NIH/3T3 cells were grown in DMEM-H containing glutamine and 10% Colorado Calf Serum. Cells were passaged regularly prior to reaching confluence. Eighteen to 24 hours prior to experimentation, the cells were plated onto Poly-L-Lysine-coated glass bottom 24-well plates. On the day of experimentation, the cell culture medium was removed and was replaced with the same medium containing from 10 nM to 25 μM of the test compound, and the cells were incubated for 60 minutes at 37° C. The culture medium was then removed and the cells were washed with warmed PBS and fixed for 10 minutes with warmed 4% paraformaldehyde. The cells were permeabilized with 0.5% Triton-X, stained with TRITC-conjugated phalloidin and imaged using a Nikon Eclipse E600 epifluorescent microscope to determine the degree of actin disruption. Results were expressed as a numerical score indicating the observed degree of disruption of the actin cytoskeleton at the test concentration, ranging from 0 (no effect) to 4 (complete disruption), and were the average of at least 2 determinations.

T1 sequence (O75116 11-552 limits assumed): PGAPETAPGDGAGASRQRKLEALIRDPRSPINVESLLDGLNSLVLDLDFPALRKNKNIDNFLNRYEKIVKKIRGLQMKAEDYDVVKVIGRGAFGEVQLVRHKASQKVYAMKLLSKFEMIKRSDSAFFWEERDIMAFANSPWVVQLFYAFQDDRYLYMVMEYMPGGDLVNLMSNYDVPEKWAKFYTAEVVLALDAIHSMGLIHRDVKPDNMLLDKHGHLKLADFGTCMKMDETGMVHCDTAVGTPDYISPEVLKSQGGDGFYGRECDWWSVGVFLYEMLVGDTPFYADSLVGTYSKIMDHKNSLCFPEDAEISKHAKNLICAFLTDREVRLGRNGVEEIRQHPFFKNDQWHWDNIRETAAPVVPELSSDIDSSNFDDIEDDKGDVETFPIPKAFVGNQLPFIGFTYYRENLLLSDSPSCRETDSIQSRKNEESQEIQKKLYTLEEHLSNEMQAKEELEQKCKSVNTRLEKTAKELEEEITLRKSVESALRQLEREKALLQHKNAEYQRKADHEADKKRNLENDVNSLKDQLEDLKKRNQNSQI
Experimental for ROCK1: (§1) Following the pre-incubation, 10 μM ATP was added to initiate the reaction. After 60 minutes at room temperature, Molecular Devices IMAP™ binding solution was added to bind phosphorylated substrate. After 30 minutes of incubation in the presence of the IMAP™ beads, the fluorescence polarization was read and the ratio was reported as mP. IC50 values for compounds and EC50 values for ATP were calculated using the Prism software from Graphpad.
Experimental for ROCK2: as §1

For `OCCOc1cccc(CN2CCCC(Nc3ccc4[nH]ncc4c3)C2)c1` (stereo not drawn) [Compound 1.039, 2-(3-((3-(1H-indazol-5-ylamino)piperidin-1-yl)methyl)phenoxy)ethanol], the Ki at ROCK2 stood at 24.7 nM; on ROCK1, 209 nM. The “Cell score at 1 μM” value in the assay on NIH/3T3 cells was determined as 2.

Regarding `CS(=O)(=O)Cc1cccc(CN2CCCC(Nc3ccc4[nH]ncc4c3)C2)c1` (stereo not drawn) [Compound 1.041, N-(1-(3-(methylsulfonylmethyl)benzyl)piperidin-3-yl)-1H-indazol-5-amine], the “Cell score at 1 μM” value in the assay on NIH/3T3 cells was found to be 2.5.

Consider `Clc1ccc(CN2CCC(Nc3ccc4[nH]ncc4c3)C2)cc1Cl` (stereo not drawn) [Compound 1.062, N-(1-(3,4-dichlorobenzyl)pyrrolidin-3-yl)-1H-indazol-5-amine], for which the “Cell score at 1 μM” value in the assay on NIH/3T3 cells is 2.3.

As for `c1cc2cc(CN3CCCC(Nc4ccc5[nH]ncc5c4)C3)ccc2o1` (stereo not drawn) [Compound 1.052, N-(1-(benzofuran-5-ylmethyl)piperidin-3-yl)-1H-indazol-5-amine], the “Cell score at 1 μM” value in the assay on NIH/3T3 cells turned out to be 2.8.

As for `CS(=O)(=O)c1cccc(CN2CCCC(Nc3ccc4[nH]ncc4c3)C2)c1` (stereo not drawn) [Compound 1.048, N-(1-(3-(methylsulfonyl)benzyl)piperidin-3-yl)-1H-indazol-5-amine], the “Cell score at 1 μM” value in the assay with NIH/3T3 cells is given as 1.5.

As for `OCc1ccc(CN2CCCC(Nc3ccc4[nH]ncc4c3)C2)cc1` (stereo not drawn) [Compound 1.025, (4-((3-(1H-indazol-5-ylamino)piperidin-1-yl)methyl)phenyl)methanol], the “Cell score at 1 μM” value in the assay with NIH/3T3 cells stood at 2.

`CS(=O)(=O)Nc1cccc(CN2CCCC(Nc3ccc4[nH]ncc4c3)C2)c1` (stereo not drawn) [Compound 1.051, N-(3-((3-(1H-indazol-5-ylamino)piperidin-1-yl)methyl)phenyl)methanesulfonamide]: the figures for the Ki on ROCK2 and at ROCK1 were 3.8 nM and 37.2 nM, respectively. Moreover, the “Cell score at 1 μM” value with NIH/3T3 cells was found to be 2.5.

For `COc1ccc(CN2CCC(Nc3cccc4cnccc34)C2)cc1` (stereo not drawn) [Compound 2.017, N-(1-(4-methoxybenzyl)pyrrolidin-3-yl)isoquinolin-5-amine], in the assay with NIH/3T3 cells, the “Cell score at 1 μM” value is reported as 2.

In the case of `c1ccc(CN2CCC(Nc3cccc4cnccc34)C2)cc1` (stereo not drawn) [Compound 2.006, N-(1-benzylpyrrolidin-3-yl)isoguinolin-5-amine], in the assay with NIH/3T3 cells, the “Cell score at 1 μM” value amounted to 2.8.

With `CS(=O)(=O)c1ccc(CN2CCC(Nc3ccc4[nH]ncc4c3)C2)cc1` (stereo not drawn) [Compound 1.004, N-(1-(4-(methylsulfonyl)benzyl)pyrrolidin-3-yl)-1H-indazol-5-amine], the “Cell score at 1 μM” value in the assay with NIH/3T3 cells came out at 1.8.

For the compound `Oc1cccc(CN2CCCC(Nc3ccc4[nH]ncc4c3)C2)c1` (stereo not drawn) [Compound 1.046, 3-((3-(1H-indazol-5-ylamino)piperidin-1-yl)methyl)phenol], the “Cell score at 1 μM” value in the assay on NIH/3T3 cells is on record as 2.5.

On to `FC(F)(F)c1cccc(CN2CCC(Nc3cccc4cnccc34)C2)c1` (stereo not drawn) [Compound 2.018, N-(1-(3-(trifluoromethyl)benzyl)pyrrolidin-3-yl)isoquinolin-5-amine], for which the “Cell score at 1 μM” value in the assay with NIH/3T3 cells was determined as 1.8.

With `CSc1ccc(CN2CCCC(Nc3ccc4[nH]ncc4c3)C2)cc1` (stereo not drawn) [Compound 1.008, N-(1-(4-(methylthio)benzyl)piperidin-3-yl)-1H-indazol-5-amine], the Ki at ROCK2 worked out at 3.9 nM; on ROCK1 it was 30.5 nM. Further, the “Cell score at 1 μM” value with NIH/3T3 cells turned out to be 2.

Consider `Cc1ccc(CN2CCCC(Nc3ccc4[nH]ncc4c3)C2)c(C)c1` (stereo not drawn) [Compound 1.024, N-(1-(2,4-dimethylbenzyl)piperidin-3-yl)-1H-indazol-5-amine], for which the “Cell score at 1 μM” value with NIH/3T3 cells is reported as 2.4.

Consider `Clc1ccc(CN2CCC(Nc3cccc4cnccc34)C2)cc1Cl` (stereo not drawn) [Compound 2.016, N-(1-(3,4-dichlorobenzyl)pyrrolidin-3-yl)isoquinolin-5-amine], for which the Ki at ROCK2 was determined as 42.4 nM; on ROCK1, 101 nM. The “Cell score at 1 μM” value with NIH/3T3 cells is recorded as 1.8.

Take `Cc1cccc(CN2CCCC(Nc3ccc4[nH]ncc4c3)C2)c1` (stereo not drawn) [Compound 1.066, N-(1-(3-methylbenzyl)piperidin-3-yl)-1H-indazol-5-amine]: the “Cell score at 1 μM” value in the assay with NIH/3T3 cells is on record as 2.

The values above are taken from patent US20090325959A1 (priority 2008, published 2009).
